Source: article PMC4376724, “Differential Phenotypic and Functional Profiles of TcCA-2 -Specific Cytotoxic CD8^+ T Cells in the Asymptomatic versus Cardiac Phase in Chagasic Patients” (PLoS ONE, 2015)

Test system: PBMC from HLA-A*02:01 Chagas disease patients and healthy donors
Test: Cytokine secretion test (Bio-Plex multiplex immunoassay) in PBMC supernatants
Type: cell-based, human
Details: 1 μM peptide, 30 h; for Patients whose cells recognized the peptide by secreting IFN-γ, TNF-α and IL-6: positive = at least three folds non-peptide control and ≥15 pg/mL IL-6, ≥5 pg/mL IFN-γ and TNF-α; for IFNγ / IL6 / TNFα: non-peptide control subtracted
Procedure: For the screening of the recognition of TcCA-2 epitopes by Chagas disease patients, 10 HLA-A*02:01 adult patients in the asymptomatic phase of the disease (IND) were enrolled. For cytotoxicity, functional activity determinations and phenotypic characterization another group of 19 HLA-A*02:01 adults Chagas disease patients and 9 healthy donors were analyzed. These patients were at the chronic stage of the disease and were considered to be at the asymptomatic phase (IND, n = 8) if there was no evidence of having cardiac or gastrointestinal disorders. Chronic Chagas cardiomyopathy patients (CCC, n = 11) were stratified into G1 to G3 stages following Kuschnir classification according to clinical criteria and radiological, electrocardiographic and echocardiography analyses. The number of patients was the one recommended by the Hospital Ethical Committee. […] The patients were enrolled in both studies (functional and phenotypic characterization, IND n = 6 and CCC n = 7) when the available number of purified PBMC (limited by the cellular number isolated from each subject) was enough for both analyses. Another four CCC patients had to be enrolled to perform the phenotypic analysis in order to reach statistical significance.
Cytokine secretion (IL-4, IL-10, IL-6, IFN-γ, TNF-α) was determined in the supernatants of PBMC from Chagas disease patients and healthy donors, after in vitro stimulation with 1 μM of each peptide for 30 h at 37°C in RPMI supplemented with 10% iFBS as explained before. The secretion profile was determined by using a bead-based multiplex immunoassay system (Bio-Plex, Bio-Rad), following the manufacturer's instructions. The response was considered positive if an increase in the secretion of cytokines was at least three folds higher than the secretion by un-stimulated cells (basal secretion level) and at least, 4 pg/mL for IL-4, 2 pg/mL for IL-10, 15 pg/mL for IL-6 and 5 pg/mL for IFN-γ and TNF-α. The positive control consisted of 50 ng/mL Phorbol 12 myristate 13-acetate (PMA) and 500 ng/mL ionomycin (Sigma). Cytokine levels were quantified in each sample by using the Bio-Plex Manager software 4.1 (Bio-Rad).
Functional analysis of the epitope-specific CD8^+ T cells was carried out by the determination of the secretion profile of IFN-γ, TNF-α, IL-4, IL10 and IL-6 cytokines. […] CD8^+ T cells from 2 out of 11 patients responded to stimulation with peptide TcCA-2_273-281 by secreting IL-6. […] There was no secretion of IL-4 and IL-10 in PBMC after stimulation with any one of the four TcCA-2 peptides (data not shown). IFN-γ, TNF-α and IL6 cytokines secretion levels were higher in patients at the asymptomatic phase of the disease than in Chagas patients with associated cardiomyopathy.

In the case of ALRNLRVFL [TcCA-2_607-615], the “Patients whose cells recognized the peptide by secreting IFN-γ, TNF-α and IL-6” value (PBMC of Chagas patients) is reported as 2 out of the 14, the IFNγ (PBMC of patient CCC I 456) is reported as 3 pg/mL and the IL6 (PBMC of patient CCC I 456) is reported as 18 pg/mL. For the same sequence, the TNFα (PBMC of patient CCC I 456) was 12 pg/mL, the IFNγ (PBMC of patient CCC I 770) was 0 pg/mL and the IL6 (PBMC of patient CCC I 770) was 49 pg/mL. For the same sequence, the TNFα (PBMC of patient CCC I 770) was 16 pg/mL, the IFNγ (PBMC of patient CCC I 861) was 0 pg/mL and the IL6 (PBMC of patient CCC I 861) was -7 pg/mL. The TNFα (PBMC of patient CCC I 861) was -3 pg/mL, the IFNγ (PBMC of patient CCC I 884) was 0 pg/mL and the IL6 (PBMC of patient CCC I 884) was 0 pg/mL. For the same sequence, the TNFα (PBMC of patient CCC I 884) was 0 pg/mL, the IFNγ (PBMC of patient CCC II 142) was 0 pg/mL and the IL6 (PBMC of patient CCC II 142) was -4 pg/mL. It also gave a TNFα (PBMC of patient CCC II 142) of -15 pg/mL, an IFNγ (PBMC of patient CCC III 509) of 0 pg/mL and an IL6 (PBMC of patient CCC III 509) of -5 pg/mL. For the same sequence, the TNFα (PBMC of patient CCC III 509) was -4 pg/mL, the IFNγ (PBMC of patient CCC III 797) was -5 pg/mL and the IL6 (PBMC of patient CCC III 797) was 9 pg/mL. For the same sequence, the TNFα (PBMC of patient CCC III 797) was 3 pg/mL, the IFNγ (PBMC of patient IND 265) was 81 pg/mL and the IL6 (PBMC of patient IND 265) was 1127 pg/mL. The TNFα (PBMC of patient IND 265) was 83 pg/mL, the IFNγ (PBMC of patient IND 283) was 15 pg/mL and the IL6 (PBMC of patient IND 283) was 55 pg/mL. For the same sequence, the TNFα (PBMC of patient IND 283) was 26 pg/mL, the IFNγ (PBMC of patient IND 365) was 5 pg/mL and the IL6 (PBMC of patient IND 365) was 23 pg/mL. For the same sequence, the TNFα (PBMC of patient IND 365) was 23 pg/mL, the IFNγ (PBMC of patient IND 388) was 1 pg/mL and the IL6 (PBMC of patient IND 388) was 32 pg/mL. For the same sequence, the TNFα (PBMC of patient IND 388) was -11 pg/mL, the IFNγ (PBMC of patient IND 510) was 0 pg/mL and the IL6 (PBMC of patient IND 510) was -1 pg/mL. The TNFα (PBMC of patient IND 510) was 2 pg/mL, the IFNγ (PBMC of patient IND 535) was 0 pg/mL and the IL6 (PBMC of patient IND 535) was -5 pg/mL. For the same sequence, the TNFα (PBMC of patient IND 535) was -1 pg/mL, the IFNγ (PBMC of patient IND 917) was 1 pg/mL and the IL6 (PBMC of patient IND 917) was -2 pg/mL. The TNFα (PBMC of patient IND 917) was -3 pg/mL, the IFNγ (PBMC of subject HD 001) was 1 pg/mL and the IL6 (PBMC of subject HD 001) was -6 pg/mL. It also gave a TNFα (PBMC of subject HD 001) of -14 pg/mL, an IFNγ (PBMC of subject HD 004) of 0 pg/mL and an IL6 (PBMC of subject HD 004) of -5 pg/mL. For the same sequence, the TNFα (PBMC of subject HD 004) was 0 pg/mL, the IFNγ (PBMC of subject HD 005) was -21 pg/mL and the IL6 (PBMC of subject HD 005) was -77 pg/mL. It also gave a TNFα (PBMC of subject HD 005) of -2 pg/mL, an IFNγ (PBMC of subject HD 006) of 13 pg/mL and an IL6 (PBMC of subject HD 006) of 69 pg/mL. The TNFα (PBMC of subject HD 006) was 5 pg/mL, the IFNγ (PBMC of subject HD 008) was 3 pg/mL and the IL6 (PBMC of subject HD 008) was 22 pg/mL. For the same sequence, the TNFα (PBMC of subject HD 008) was 0 pg/mL, the IFNγ (PBMC of subject HD 011) was 0 pg/mL and the IL6 (PBMC of subject HD 011) was -12 pg/mL. For the same sequence, the TNFα (PBMC of subject HD 011) was -8 pg/mL, the IFNγ (PBMC of subject HD 340) was 0 pg/mL and the IL6 (PBMC of subject HD 340) was 6 pg/mL. It also gave a TNFα (PBMC of subject HD 340) of 0 pg/mL, an IFNγ (PBMC of subject HD 664) of -3 pg/mL and an IL6 (PBMC of subject HD 664) of 0 pg/mL. The TNFα (PBMC of subject HD 664) was 0 pg/mL.

TVFDASRSTV [TcCA-2_442-451] was tested, and the “Patients whose cells recognized the peptide by secreting IFN-γ, TNF-α and IL-6” value (PBMC of Chagas patients) was 2 out of 14, the “Patients whose cells recognized the peptide by secreting TNF-α and IL-6” value (PBMC of Chagas patients, same positivity criteria) was 2 out of 14 and the IFNγ (PBMC of patient CCC I 456) was 4 pg/mL. It also gave an IL6 (PBMC of patient CCC I 456) of 46 pg/mL, a TNFα (PBMC of patient CCC I 456) of 6 pg/mL and an IFNγ (PBMC of patient CCC I 770) of -2 pg/mL. It also gave an IL6 (PBMC of patient CCC I 770) of 3 pg/mL, a TNFα (PBMC of patient CCC I 770) of -11 pg/mL and an IFNγ (PBMC of patient CCC I 861) of 0 pg/mL. It also gave an IL6 (PBMC of patient CCC I 861) of -4 pg/mL, a TNFα (PBMC of patient CCC I 861) of -3 pg/mL and an IFNγ (PBMC of patient CCC I 884) of 0 pg/mL. It also gave an IL6 (PBMC of patient CCC I 884) of 0 pg/mL, a TNFα (PBMC of patient CCC I 884) of 0 pg/mL and an IFNγ (PBMC of patient CCC II 142) of 2 pg/mL. It also gave an IL6 (PBMC of patient CCC II 142) of -3 pg/mL, a TNFα (PBMC of patient CCC II 142) of -20 pg/mL and an IFNγ (PBMC of patient CCC III 509) of 0 pg/mL. It also gave an IL6 (PBMC of patient CCC III 509) of -4 pg/mL, a TNFα (PBMC of patient CCC III 509) of -5 pg/mL and an IFNγ (PBMC of patient CCC III 797) of 3 pg/mL. It also gave an IL6 (PBMC of patient CCC III 797) of 31 pg/mL, a TNFα (PBMC of patient CCC III 797) of 7 pg/mL and an IFNγ (PBMC of patient IND 265) of 204 pg/mL. It also gave an IL6 (PBMC of patient IND 265) of 1641 pg/mL, a TNFα (PBMC of patient IND 265) of 160 pg/mL and an IFNγ (PBMC of patient IND 283) of 12 pg/mL. The IL6 (PBMC of patient IND 283) was 80 pg/mL, the TNFα (PBMC of patient IND 283) was 35 pg/mL and the IFNγ (PBMC of patient IND 365) was 0 pg/mL. For the same sequence, the IL6 (PBMC of patient IND 365) was 7 pg/mL, the TNFα (PBMC of patient IND 365) was 15 pg/mL and the IFNγ (PBMC of patient IND 388) was 1 pg/mL. The IL6 (PBMC of patient IND 388) was 21 pg/mL, the TNFα (PBMC of patient IND 388) was -10 pg/mL and the IFNγ (PBMC of patient IND 510) was 0 pg/mL. It also gave an IL6 (PBMC of patient IND 510) of 1 pg/mL, a TNFα (PBMC of patient IND 510) of 1 pg/mL and an IFNγ (PBMC of patient IND 535) of 0 pg/mL. The IL6 (PBMC of patient IND 535) was -6 pg/mL, the TNFα (PBMC of patient IND 535) was -1 pg/mL and the IFNγ (PBMC of patient IND 917) was -1 pg/mL. For the same sequence, the IL6 (PBMC of patient IND 917) was -13 pg/mL, the TNFα (PBMC of patient IND 917) was -4 pg/mL and the IFNγ (PBMC of subject HD 001) was 4 pg/mL. It also gave an IL6 (PBMC of subject HD 001) of 18 pg/mL, a TNFα (PBMC of subject HD 001) of -6 pg/mL and an IFNγ (PBMC of subject HD 004) of 0 pg/mL. For the same sequence, the IL6 (PBMC of subject HD 004) was -15 pg/mL, the TNFα (PBMC of subject HD 004) was -1 pg/mL and the IFNγ (PBMC of subject HD 005) was 5 pg/mL. It also gave an IL6 (PBMC of subject HD 005) of 16 pg/mL, a TNFα (PBMC of subject HD 005) of -1 pg/mL and an IFNγ (PBMC of subject HD 006) of 2 pg/mL. It also gave an IL6 (PBMC of subject HD 006) of -2 pg/mL, a TNFα (PBMC of subject HD 006) of 2 pg/mL and an IFNγ (PBMC of subject HD 008) of 1 pg/mL. For the same sequence, the IL6 (PBMC of subject HD 008) was 31 pg/mL, the TNFα (PBMC of subject HD 008) was 15 pg/mL and the IFNγ (PBMC of subject HD 011) was 8 pg/mL. It also gave an IL6 (PBMC of subject HD 011) of 54 pg/mL, a TNFα (PBMC of subject HD 011) of 10 pg/mL and an IFNγ (PBMC of subject HD 340) of 2 pg/mL. The IL6 (PBMC of subject HD 340) was 11 pg/mL, the TNFα (PBMC of subject HD 340) was 3 pg/mL and the IFNγ (PBMC of subject HD 664) was -3 pg/mL. For the same sequence, the IL6 (PBMC of subject HD 664) was 0 pg/mL and the TNFα (PBMC of subject HD 664) was 0 pg/mL.
